Results on three compounds are retold here after patent US8344001B2, “Heterocyclic H3 antagonists” (High Point Pharmaceuticals, LLC, priority 2007, dated 2013).

Data set [1] has as its target Human H3 (Homo sapiens, UniProt Q9Y5N1). The experiment in a line: Functional assay II, human H3 GTPγS. Type of data set: biochemical. The settings on record: read-out: hH3-GTPgS) [Ki].
The subject of data set [2] is rat. The experiment in a line: Open cage schedule-fed rat model, food intake. The settings on record: for Feed. Inhib. rat [Response 3 h]: response at 3 h. It is filed as in vivo.
Data set [3] addresses hERG (Homo sapiens, UniProt Q12809). The data set is described as follows: Herg-binding (3H-Astemizol). The conditions noted are these: probe 3H-astemizole.
Data set [4] has as its target CYP2C19 (Homo sapiens, UniProt P33261). The data set is described as follows: CYP2C19 inhibition. Type of data set: in vitro ADME. The settings on record: read-out: CYP2C19inh [IC50].
Data set [5] addresses CYP2C9 (Homo sapiens, UniProt P11712). The experiment in a line: CYP2C9 inhibition. It is filed as in vitro ADME. The settings on record: read-out: CYP2C9inh [IC50].
For data set [6], the target named is CYP2D6 (Homo sapiens, UniProt P10635). The experiment in a line: CYP2D6 inhibition. It is filed as in vitro ADME. The conditions noted are these: read-out: CYP2D6inh [IC50].
Chain of CYP2D6 (P10635 whole entry): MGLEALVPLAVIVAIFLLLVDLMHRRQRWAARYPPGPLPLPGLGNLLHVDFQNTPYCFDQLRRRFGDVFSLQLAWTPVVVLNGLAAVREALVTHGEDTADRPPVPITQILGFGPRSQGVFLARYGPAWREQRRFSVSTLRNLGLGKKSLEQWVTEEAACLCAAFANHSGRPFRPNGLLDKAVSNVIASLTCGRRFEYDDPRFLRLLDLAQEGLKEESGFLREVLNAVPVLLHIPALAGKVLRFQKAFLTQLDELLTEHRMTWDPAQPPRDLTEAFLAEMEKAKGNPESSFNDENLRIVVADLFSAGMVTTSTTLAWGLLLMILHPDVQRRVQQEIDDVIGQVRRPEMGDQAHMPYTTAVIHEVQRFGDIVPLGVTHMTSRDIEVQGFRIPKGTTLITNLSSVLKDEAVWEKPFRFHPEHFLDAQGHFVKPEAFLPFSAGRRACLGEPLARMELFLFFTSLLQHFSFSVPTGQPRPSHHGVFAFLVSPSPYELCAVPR
In data set [7] the target is CYP3A4 (Homo sapiens, UniProt P08684). The data set is described as follows: CYP3A4 inhibition. It is filed as in vitro ADME. The settings on record: read-out: CYP3A4inh [IC50].
Chain of CYP3A4 (P08684 whole entry): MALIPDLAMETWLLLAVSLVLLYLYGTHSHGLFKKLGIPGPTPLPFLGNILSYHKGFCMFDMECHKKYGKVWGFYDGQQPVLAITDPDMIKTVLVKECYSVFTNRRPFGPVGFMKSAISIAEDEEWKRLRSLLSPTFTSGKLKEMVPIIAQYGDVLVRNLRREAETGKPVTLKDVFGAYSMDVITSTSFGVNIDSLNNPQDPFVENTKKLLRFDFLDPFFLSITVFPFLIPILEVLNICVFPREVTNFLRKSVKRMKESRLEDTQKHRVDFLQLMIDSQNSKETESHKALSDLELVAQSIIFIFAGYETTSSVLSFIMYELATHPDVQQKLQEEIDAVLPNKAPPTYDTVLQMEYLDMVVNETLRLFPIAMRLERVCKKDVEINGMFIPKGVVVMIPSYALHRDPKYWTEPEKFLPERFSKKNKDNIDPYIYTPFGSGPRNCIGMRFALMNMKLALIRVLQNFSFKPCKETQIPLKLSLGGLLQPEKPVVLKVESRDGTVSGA
Data set [8] deals with T1, CYP1A (Homo sapiens, UniProt P05177).
T1 sequence (P05177 2-516): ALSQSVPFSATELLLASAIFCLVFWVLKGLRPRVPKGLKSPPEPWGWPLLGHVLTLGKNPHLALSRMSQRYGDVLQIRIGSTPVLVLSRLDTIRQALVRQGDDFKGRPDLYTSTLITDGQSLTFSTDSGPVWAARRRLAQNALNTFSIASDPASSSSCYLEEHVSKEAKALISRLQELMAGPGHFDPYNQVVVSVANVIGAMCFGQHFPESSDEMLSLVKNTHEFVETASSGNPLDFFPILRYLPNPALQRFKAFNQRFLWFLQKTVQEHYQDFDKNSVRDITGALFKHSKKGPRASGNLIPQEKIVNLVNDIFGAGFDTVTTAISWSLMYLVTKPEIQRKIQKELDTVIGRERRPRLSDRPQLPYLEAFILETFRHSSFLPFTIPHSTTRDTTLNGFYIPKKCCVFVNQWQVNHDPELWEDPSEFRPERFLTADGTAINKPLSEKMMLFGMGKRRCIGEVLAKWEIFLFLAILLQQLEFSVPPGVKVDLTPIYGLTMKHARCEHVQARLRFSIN
The experiment in a line: CYP1A inhibition.

Chain of CYP2C9 (P11712 whole entry): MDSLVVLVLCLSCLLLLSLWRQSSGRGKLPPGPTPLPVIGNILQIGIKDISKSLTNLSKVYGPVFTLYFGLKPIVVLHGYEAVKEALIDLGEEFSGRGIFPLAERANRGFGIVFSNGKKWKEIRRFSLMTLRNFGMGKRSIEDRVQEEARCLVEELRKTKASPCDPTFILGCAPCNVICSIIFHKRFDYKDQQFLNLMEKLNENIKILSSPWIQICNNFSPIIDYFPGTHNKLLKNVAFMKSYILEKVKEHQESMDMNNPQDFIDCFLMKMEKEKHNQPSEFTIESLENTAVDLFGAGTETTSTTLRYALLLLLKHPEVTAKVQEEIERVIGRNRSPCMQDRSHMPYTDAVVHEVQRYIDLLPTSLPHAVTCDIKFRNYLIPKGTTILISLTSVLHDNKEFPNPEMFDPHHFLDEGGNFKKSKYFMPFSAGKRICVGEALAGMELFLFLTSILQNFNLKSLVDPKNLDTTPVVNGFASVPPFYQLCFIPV
Chain of hERG (Q12809 whole entry): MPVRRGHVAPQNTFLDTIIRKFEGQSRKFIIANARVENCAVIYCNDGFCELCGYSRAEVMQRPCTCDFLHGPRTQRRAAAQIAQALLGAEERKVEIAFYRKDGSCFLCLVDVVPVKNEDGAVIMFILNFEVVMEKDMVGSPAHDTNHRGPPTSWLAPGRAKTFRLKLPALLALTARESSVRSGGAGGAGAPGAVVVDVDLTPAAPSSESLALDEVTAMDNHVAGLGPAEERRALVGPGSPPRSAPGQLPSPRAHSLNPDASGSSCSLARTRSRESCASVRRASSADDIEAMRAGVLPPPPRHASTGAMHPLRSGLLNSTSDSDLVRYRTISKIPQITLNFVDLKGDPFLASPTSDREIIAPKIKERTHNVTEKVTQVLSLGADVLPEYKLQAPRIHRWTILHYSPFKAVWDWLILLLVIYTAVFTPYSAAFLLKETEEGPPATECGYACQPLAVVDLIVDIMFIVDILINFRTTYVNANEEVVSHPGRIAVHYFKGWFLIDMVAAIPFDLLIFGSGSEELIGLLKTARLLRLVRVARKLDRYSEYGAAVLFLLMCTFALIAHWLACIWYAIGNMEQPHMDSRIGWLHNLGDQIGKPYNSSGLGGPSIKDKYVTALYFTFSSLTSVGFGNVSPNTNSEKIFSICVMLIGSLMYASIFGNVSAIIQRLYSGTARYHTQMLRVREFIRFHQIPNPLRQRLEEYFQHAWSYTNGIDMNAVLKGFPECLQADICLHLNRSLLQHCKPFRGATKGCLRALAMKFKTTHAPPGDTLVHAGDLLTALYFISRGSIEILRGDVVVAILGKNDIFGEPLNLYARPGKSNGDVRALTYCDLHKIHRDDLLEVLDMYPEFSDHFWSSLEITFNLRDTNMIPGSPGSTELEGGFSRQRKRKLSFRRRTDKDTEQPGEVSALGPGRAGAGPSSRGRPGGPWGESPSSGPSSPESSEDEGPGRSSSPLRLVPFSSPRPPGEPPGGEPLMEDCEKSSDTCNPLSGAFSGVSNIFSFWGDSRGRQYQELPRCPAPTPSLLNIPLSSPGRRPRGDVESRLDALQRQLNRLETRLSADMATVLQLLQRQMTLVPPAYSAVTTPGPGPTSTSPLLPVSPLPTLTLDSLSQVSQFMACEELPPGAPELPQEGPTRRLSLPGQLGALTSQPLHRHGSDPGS
Chain of CYP2C19 (P33261 whole entry): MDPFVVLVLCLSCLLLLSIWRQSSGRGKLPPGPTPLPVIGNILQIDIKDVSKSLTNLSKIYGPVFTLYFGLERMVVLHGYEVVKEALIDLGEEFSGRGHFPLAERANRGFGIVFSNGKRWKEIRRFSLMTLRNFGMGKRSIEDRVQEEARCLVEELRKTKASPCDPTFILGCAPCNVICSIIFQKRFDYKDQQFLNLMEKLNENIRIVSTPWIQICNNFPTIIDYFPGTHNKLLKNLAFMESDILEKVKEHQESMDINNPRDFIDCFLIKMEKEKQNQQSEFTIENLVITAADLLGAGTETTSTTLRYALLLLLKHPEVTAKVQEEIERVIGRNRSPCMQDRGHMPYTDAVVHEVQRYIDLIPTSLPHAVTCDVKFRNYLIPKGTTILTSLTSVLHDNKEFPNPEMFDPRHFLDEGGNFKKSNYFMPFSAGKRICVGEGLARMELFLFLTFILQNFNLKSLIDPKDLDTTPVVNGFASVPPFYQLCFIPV
Chain of Human H3 (Q9Y5N1 whole entry): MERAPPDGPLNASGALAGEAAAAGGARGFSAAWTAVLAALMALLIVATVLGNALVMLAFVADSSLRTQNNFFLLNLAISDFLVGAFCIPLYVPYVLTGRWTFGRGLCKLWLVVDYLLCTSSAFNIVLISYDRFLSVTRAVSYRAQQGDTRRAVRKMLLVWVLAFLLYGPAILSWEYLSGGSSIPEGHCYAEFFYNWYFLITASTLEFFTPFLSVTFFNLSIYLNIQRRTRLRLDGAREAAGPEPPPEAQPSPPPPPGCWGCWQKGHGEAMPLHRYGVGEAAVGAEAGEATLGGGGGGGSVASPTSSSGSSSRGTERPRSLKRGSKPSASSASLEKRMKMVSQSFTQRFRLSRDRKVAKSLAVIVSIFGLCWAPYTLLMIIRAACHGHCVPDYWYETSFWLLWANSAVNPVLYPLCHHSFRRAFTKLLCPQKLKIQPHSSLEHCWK

One may read the Ki as the dissociation constant of the complex between target and ligand, obtained from inhibition or displacement. The inhibition is the change of the read-out against control, counted positive when it falls. Read a high inhibition as a strong effect. In general, IC50 refers to the concentration needed to halve the response being measured. On to `CC(C)N1CCC(c2ccc(-c3ccc(C(=O)N4CCCC4)cc3)cn2)CC1.Cl.Cl` [Example 11, [4-(1′-Isopropyl-1′,2′,3′,4′,5′,6′-hexahydro-[2,4′]bipyridinyl-5-yl)phenyl]pyrrolidin-1-ylmethanone], for which, in data set [1], the inhibitory constant (Ki) is 0.026 µM. For the same compound, the “Open cage schedule-fed rat model, dose 15 mg/kg p.o., food intake at 3 h” value in data set [2] was 85.9 % of vehicle. Also, the “Feed. Inhib. rat [Response 3 h]” value in data set [2] was 85.9%. In data set [3], the inhibition at 10 µM is 19%. Moreover, the half-maximal inhibitory concentration (IC50) in data set [4], in data set [5], in data set [6], in data set [7] and in data set [8] was above 25 µM each time.

For `Cc1cc(-c2ccc(CC3CCN(C4CCC4)CC3)nc2)ccn1.Cl.Cl` [Example 29, 6-(1-Cyclobutylpiperidin-4-ylmethyl)-2′-methyl-[3,4′]bipyridinyl], the inhibition constant (Ki) in data set [1] worked out at 0.0084 µM. Also, in data set [2], the “Open cage schedule-fed rat model, dose 15 mg/kg p.o., food intake at 3 h” value is 74.4 % of vehicle. Moreover, the “Feed. Inhib. rat [Response 3 h]” value in data set [2] worked out at 74.4%. The inhibition at 10 µM in data set [3] worked out at 7%. For the same compound, the half-maximal inhibitory concentration (IC50) in data set [4], in data set [5], in data set [6], in data set [7] and in data set [8] was above 25 µM each time.

`CC(C)N1CCN(Cc2ccc(-c3ccc(C(=O)N(C)C)cc3)cn2)CC1.Cl.Cl` [Example 42, 4-[6-(4-Isopropylpiperazin-1-ylmethyl)pyridin-3-yl]-N,N-dimethylbenzamide]: the inhibitory constant (Ki) in data set [1] amounted to 0.017 µM. Also, the “Open cage schedule-fed rat model, dose 15 mg/kg p.o., food intake at 3 h” value in data set [2] is 87.8 % of vehicle. For the same compound, the “Feed. Inhib. rat [Response 3 h]” value in data set [2] was 87.8%. This compound yielded an inhibition at 10 µM in data set [3] of 7%. The IC50 in data set [4], in data set [5], in data set [6], in data set [7] and in data set [8] was above 25 µM in each case.
